The test system of test [1] is mouse model with organ engraftment. The following applies: in vivo; cited from earlier work.
A further test deals with C57BL/6N male mice. In words: Indirect calorimetry in HFD-fed mice. Format: in vivo, mouse. The following applies: HFD mixed with UCB9608 (5 mg/kg) 3 weeks, vs DMSO. Here is the method: 8-10 weeks old C57BL/6N male mice were fed on HFD mixing with DMSO or UCB9608 (5 mg/kg) for 3 weeks before indirect calorimetry measurements were performed with Phenomaster (TSE systems) according to the manufacturer's instructions. Animals were single caged and adapted to the metabolic cage for 48h prior to metabolic recording. The energy expenditure between both groups was analyzed via ANCOVA method and RER was analyzed via two-way ANOVA method.

The test system of a further test is male C57BL/6N mice. The test can be described thus: Murine NASH model (HFD, glucose/fructose water, thermoneutral housing). The class given is in vivo, mouse. The method, then:
To model NASH in murine liver, male C57BL/6N mice were challenged with HFD for 24 weeks in conjunction with 18.9 g/L glucose&23.1 g/L fructose containing drinking water under thermoneutral housing condition (29°C) for 12 weeks before the administration of UCB9608 through HFD (15 mg/kg) for another 12 weeks. Then the mice were analysed in EcoMRI for body composition measurement before 6 hours fasting, followed by dissection to harvest liver and sample blood.
Total RNA was extracted from adipose depots, liver or in vitro cell cultures via Trizol reagent (Invitrogen) according to the manufacturer's instructions. Genomic DNA was removed from the crude RNA samples by DNase treatment (NEB BioLabs). For individual sample, 1 µg of total RNA was used to convert into cDNA library by using the High-Capacity cDNA Reverse transcription kit (Applied Biosystems, 4368813). Quantitative PCR was performed using KAPA SYBR FAST Universal kit (Roche, KK4618) on ViiA7 (Applied Biosystems) and the relative transcript levels were normalized to […] expression via ΔΔCt method. Table 2: Sequences of qPCR primers used in this study.
Plasma collected from mice under different conditions was used to determine levels of lipolysis and liver injury. FFA levels were measured via NEFA assay kit (Wako NEFA kit). TG levels were determined via TG assay kit (Roche Trig/GB reagent). ALT (MAK052, Sigma) and AST (MAK055, Sigma) assay kits were used to determine ALT and AST activity according to the manufacturer's instructions. The absorbance was monitored using Synergy Gen5 Platereader.
Weight of liver pieces (50-100 mg) was recorded before homogenization by 1 mL isopropanol per 50 mg tissue. The homogenates were incubated at room temperature with rotating before spinning down to remove debris at 2000×g for 10 min and collect supernatant. The TG levels were determined (Roche Trig/GB reagent) in Synergy Gen5 Platereader and normalized to the weight of liver pieces.
For NASH cohort, livers were dissected and fixed with 4% PFA in PBS for 24 h at 4°C. The samples were sent to the University of Zurich for histologic analyses. Briefly, liver tissues were dehydrated and embedded in paraffin and underwent section at 3 µm. The slides were stained with hematoxylin and eosin (H&E) and Gomori Green Trichrome directly or stained with anti-cleaved Caspase 3 after antigen retrieval. Afterwards, the images were captured by digital slide scanners and the grade of steatosis, ballooning, inflammation and fibrosis were quantified via the NASH Clinical Research Network Scoring System (Kleiner,D.E. et al. Hepatology 41, (2005)). To perform ORO staining, the fixed samples were sectioned, and the slides were stained via Oil Red O solution, followed by counter-staining with eosin. The images were acquired by digital slide scanners.

[2] abbreviates: NASH mice, UCB9608 through HFD (15 mg/kg) 12 weeks.
The mark [3] stands for this setting: NASH mice, liver histology, UCB9608 12 weeks vs vehicle.

The text below walks through data of EP4623912A1, “A METHOD FOR DEFATTENING A STEATOTIC LIVER EX VIVO” (ETH Zurich, priority 2024, dated 2025).

Structures are written as SMILES. “Also recorded” adds a separate entry of the source.

For the compound `COc1ccc(NC(=O)N2CCN(c3nc(N)nc4c3cnn4C)[C@@H](C)C2)c(C)c1` [UCB9608], the “efficacy in the mouse model with organ engraftment” value in test [1] is on record as “effective”. Moreover, the energy expenditure result with C57BL/6N male mice was “higher”. Besides, the “inflammation levels by transcript levels of inflammatory markers” value in the test with male C57BL/6N mice (NASH livers, qPCR (Fig. 7j)) is on record as “mitigation”. Also, in the test on male C57BL/6N mice (NASH livers, qPCR (Fig. 7k), vs vehicle), the “degree of fibrosis-related marker expression” value was “substantially ameliorated”. In addition, in the test on male C57BL/6N mice (setting [2]), the “ALT activity in the plasma” value is “reduction”, the “AST activity in the plasma” value is listed as “reduction”, the “TG levels in the plasma” value is “reduction; also recorded: reduced” and the “fatty acid oxidation (liver)” value is recorded as “significant elevation”. Moreover, in the test with male C57BL/6N mice (setting [2]), the “hepatic TG levels” value is reported as “reduced” and the “liver mass/body weight ratio” value is recorded as “reduced”. In addition, in the test on male C57BL/6N mice (NASH mice, UCB9608 through HFD (15 mg/kg) 12 weeks, EcoMRI), the fat mass result was “significant loss”. Further, the body weight result in the test on male C57BL/6N mice (NASH mice, UCB9608 through HFD (15 mg/kg) 12 weeks, vs vehicle) is “significant loss”. Also, in the test with male C57BL/6N mice (setting [3]), the NAFLD activity score entry was “significantly lower”, the fibrosis grade result was “significantly lower”, the inflammation levels result was “significantly lower” and the liver injury result is given as “significantly lower”. The steatosis grade entry in the test on male C57BL/6N mice (setting [3]) is listed as “significantly lower”.
